Values quoted from earlier work as cited in article PMC10381184, “Unprecedented Antimicrobial and Cytotoxic Polyketides from Cultures of Diaporthe africana sp. nov” (Journal of Fungi, 2023).

Test system: MptpB
Conditions: result in words; ref 63 (Cui et al.); cited from earlier work

CC(C)=CCc1ccc(O)c2c1[C@H](c1cc(C)cc3c1O[C@H](C(C)(C)O)CO3)NC2=O [diaporisoindole B]
inhibitory activity against MptpB: failed to show any activity
